According to patent US9839642B2, “Beta-tetrazolyl-propionic acids as metallo-beta-lactamase inhibitors” (priority 2014, dated 2017):

Tests used:
VIM-1 = VIM-1 (Pseudomonas aeruginosa, UniProt A0A0F7KYQ8); assay: Enzyme activity: determination of IC50, fluorescence assay with CCF2-FA substrate; type: biochemical; settings: enzyme 30 pM, CCF2-FA 1.25 μM, 2 hours at 25° C.; read-out: VIM1 IC50
Method in brief: (§1)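 Final enzyme levels differed by target: 1 pM NDM-1, 2 pM IMP-1, 30 pM VIM-1. Each was incubated 2 hours at 25° C with test compound and 1.25 μM CCF2-FA, and 460 nm fluorescence (405 nm excitation) was fitted by 4-parameter curve to obtain IC50.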

IMP-1 = IMP-1 (Serratia marcescens, UniProt P52699); assay: as above; type: biochemical; settings: enzyme 2 pM, CCF2-FA 1.25 μM, 2 hours at 25° C.; read-out: IMP1 IC50
Method in brief: as §1

NDM-1 = NDM-1 (Klebsiella pneumoniae, UniProt C7C422); assay: as above; type: biochemical; settings: enzyme 1 pM, CCF2-FA 1.25 μM, 2 hours at 25° C.; read-out: NDM1 IC50
Method in brief: as §1

[1] = system: Klebsiella pneumoniae expressing VIM-1 (IHMA599644); assay: Antibiotic potentiation activity: synergistic concentration (MITC95) with imipenem, growth by OD600; type: cell-based; settings: 95% inhibition of bacterial growth, strain IHMA599644
Method in brief: (§2)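 Colonies from overnight agar plates (35 °C) were suspended in saline and diluted 1:100 into 1.1× CAMHB. Inhibitor (final 200 μM to 0.195 μM) was combined with imipenem at 1 or 4 μg/ml, incubated 22–24 h at 35 °C, and absorbance read; MITC95 is the lowest inhibitor concentration giving 95% growth inhibition.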

[2] = system: Escherichia coli expressing NDM-1 (CLB30016); assay: as above; type: cell-based; settings: 95% inhibition of bacterial growth, strain CLB30016
Method in brief: as §2

[3] = system: Serratia marcescens expressing IMP-1 (CL5741); assay: as above; type: cell-based; settings: 95% inhibition of bacterial growth, strain CL5741
Method in brief: as §2

Sequence of IMP-1 (P52699 19-246, looked up, species assumed): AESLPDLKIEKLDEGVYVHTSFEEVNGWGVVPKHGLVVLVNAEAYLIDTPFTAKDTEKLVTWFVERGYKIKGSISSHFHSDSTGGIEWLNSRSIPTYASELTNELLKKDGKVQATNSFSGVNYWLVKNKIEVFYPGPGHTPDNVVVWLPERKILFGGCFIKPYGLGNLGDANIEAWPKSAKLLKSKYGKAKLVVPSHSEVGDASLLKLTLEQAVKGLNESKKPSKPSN
Sequence of NDM-1 (C7C422 29-270, looked up, species assumed): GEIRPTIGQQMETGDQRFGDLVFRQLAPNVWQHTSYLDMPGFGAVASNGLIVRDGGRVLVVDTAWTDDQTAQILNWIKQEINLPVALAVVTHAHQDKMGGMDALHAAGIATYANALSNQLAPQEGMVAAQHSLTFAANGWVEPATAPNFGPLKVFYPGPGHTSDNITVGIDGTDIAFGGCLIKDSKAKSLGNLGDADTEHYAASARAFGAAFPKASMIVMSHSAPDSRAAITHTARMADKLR

SMILES | IC50 (VIM-1) [nM] | IC50 (IMP-1) [nM] | IC50 (NDM-1) [nM] | VIM1 KP599644 MITC95 [1] [µM] | NDM1 EC30016 MITC95 [2] [µM] | IMP1 SM5741 MITC95 [3] [µM]
O=C(O)[C@@H](C1CCCC1)[C@H](Cc1ccc(C2CCNC2)cc1)c1nnn[nH]1 (stereo partly drawn) [Example 79, 3-(4-((2S,3S)-3-carboxy-3-cyclopentyl-2-(1H-tetrazol-5-yl)propyl)phenyl)pyrrolidin-1-ium] | 2.3 | 190 | 24 | 6.2 | 3.1 | 4.7
O=C(O)[C@@H](C1CCCC1)[C@H](Cc1ccc(C2CCNCC2)cc1)c1nnn[nH]1 [Example 80, 4-(4-((2S,3S)-3-carboxy-3-cyclopentyl-2-(1H-tetrazol-5-yl)propyl)phenyl)piperidine] | 2.2 | 73 | 17 | 9.4 | 6.2 | 1.6
CC[C@H](C)[C@H](C(=O)O)[C@H](Cc1ccc(C2CCNC2)cc1)c1nnn[nH]1 (stereo partly drawn) [Example 81, (2S,3S)-3-methyl-2-((1S)-2-(4-(pyrrolidin-3-yl)phenyl)-1-(1H-tetrazol-5-yl)ethyl)pentanoic acid] | 4.4 | 65 | 46 | 6.2 | 2.3 | 2.3
CCC[C@H](C(=O)O)[C@H](Cc1ccc(C#N)cn1)c1nnn[nH]1 [Example 84, (2S)-2-[(1S)-2-(5-cyanopyridin-2-yl)-1-(1H-tetrazol-5-yl)ethyl]pentanoic acid] | 47 | > 20000 | 1200 | 50 | 18.8 | >200
CCC[C@H](C(=O)O)[C@H](Cc1ccc(C)nc1)c1nnn[nH]1 [Example 85, (2S)-2-[(1S)-2-(6-methylpyridin-3-yl)-1-(1H-tetrazol-5-yl)ethyl]pentanoic acid] | 6.2 | 6500 | 250 | 18.8 | 0.78 | 100
CCC[C@H](C(=O)O)[C@H](Cc1ccc(S(=O)(=O)C2CC2)nc1)c1nnn[nH]1 [Example 86, (2S)-2-[(1S)-2-[6-(cyclopropylsulfonyl)pyridin-3-yl]-1-(1H-tetrazol-5-yl)ethyl]pentanoic acid] | 11 | 3300 | 130 | 100 | 50 | 125
CCC[C@H](C(=O)O)[C@H](Cc1cccnc1Cl)c1nnn[nH]1 [Example 87, (2S)-2-[(1S)-2-(2-chloropyridin-3-yl)-1-(1H-tetrazol-5-yl)ethyl]pentanoic acid] | 2.3 | 6600 | 300 | 25 | 12.5 | >200
CCC[C@H](C(=O)O)[C@H](Cc1ccncc1)c1nnn[nH]1 [Example 88, (2S)-2-[(1S)-2-pyridin-4-yl-1-(1H-tetrazol-5-yl)ethyl]pentanoic acid] | 5.6 | 2000 | 180 | 6.2 | 0.78 | 37.5
CC(C)[C@H](C(=O)O)[C@H](CC1CCNCC1)c1nnn[nH]1 [Example 89, (2S,3S)-2-isopropyl-4-(piperidin-4-yl)-3-(1H-tetrazol-5-yl)butanoic acid] | 2100 | > 20000 | 18000 | 37.5 | 18.8 | >200
CC(=O)N1CCC(C[C@H](c2nnn[nH]2)[C@@H](C(=O)O)C(C)C)CC1 [Example 90, (2S,3S)-4-(1-acetylpiperidin-4-yl)-2-isopropyl-3-(1H-tetrazol-5-yl)butanoic acid] | 310 | 14000 | 200 | 200 | 62 | >200
CC(C)[C@H](C(=O)O)[C@H](Cc1ccc(Br)nc1)c1nnn[nH]1 [Example 91, (2S,3S)-4-(6-bromopyridin-3-yl)-2-isopropyl-3-(1H-tetrazol-5-yl)butanoic acid] | 7.9 | 2200 | 32 | 12.5 | 7.8 | 50
CC(C)[C@H](C(=O)O)[C@H](Cc1cccc(Br)n1)c1nnn[nH]1 [Example 92] | 28 | 5500 | 110 | 25 | 9.4 | 100
CCC[C@H](C(=O)O)[C@H](Cc1ccc(C(N)=O)cn1)c1nnn[nH]1 [Example 93, (S)-2-((S)-2-(5-carbamoylpyridin-2-yl)-1-(1H-tetrazol-5-yl)ethyl) pentanoic acid] | 90 | > 20000 | 580 | 25 | 6.2 | >200
CCC[C@H](C(=O)O)[C@H](Cc1cccc(C(=O)O)n1)c1nnn[nH]1 [Example 94, 6-((2S,3)-3-carboxy-2-(1H-tetrazol-5-yl)hexyl)picolinic acid] | 2900 | > 20000 | 4500 | 200 | 50 | >200
CCC[C@H](C(=O)O)[C@H](Cc1ccc(-c2ccc(CN)cc2)nc1)c1nnn[nH]1 [Example 96, (4-(5-((2S,3S)-3-carboxy-2-(1H-tetrazol-5-yl)hexyl)pyridin-2-yl)phenyl)methanaminium] | 9 | 3100 | 280 | 18.8 | 6.2 | 37
CCC[C@H](C(=O)O)[C@H](Cc1ccc(-c2ccc(-c3nn[nH]n3)cc2)nc1)c1nn[nH]n1 [Example 97, (S)-2-((S)-2-(6-(4-(2H-tetrazol-5-yl)phenyl)pyridin-3-yl)-1-(1H-tetrazol-5-yl)ethyl)pentanoic acid] | 5.9 | 380 | 1.2 | 200 | 100 | 31
CC(C)C[C@H](C(=O)O)[C@H](Cc1ccc(-c2ccc3c(c2)CNC3)cn1)c1nnn[nH]1 [Example 99, (S)-2-((S)-2-(5-(isoindolin-5-yl)pyridin-2-yl)-1-(1H-tetrazol-5-yl)ethyl)-4-methylpentanoic acid] | 350 | 3900 | 600 | 100 | 31 | 75
CC(C)C[C@H](C(=O)O)[C@H](Cc1ccc(C2CCNC2)nc1)c1nnn[nH]1 (stereo partly drawn) [Example 100, (2S)-4-methyl-2-((1S)-2-(6-(pyrrolidin-3-yl)pyridin-3-yl)-1-(1H-tetrazol-5-yl)ethyl)pentanoic acid] | 4.9 | 2900 | 280 | 12.5 | 6.2 | 25
CC(C)C[C@H](C(=O)O)[C@H](Cc1ccc(C2CCNCC2)cn1)c1nnn[nH]1 [Example 101, (S)-4-methyl-2-((S)-2-(5-(piperidin-4-yl)pyridin-2-yl)-1-(1H-tetrazol-5-yl)ethyl)pentanoic acid] | 13 | 2000 | 130 | 18.8 | 1.6 | 18.8
CC(C)C[C@H](C(=O)O)[C@H](Cc1ccc(C2CCNCC2)cc1)c1nnn[nH]1 [Example 102, (S)-4-methyl-2-((S)-2-(4-(piperidin-4-yl)phenyl)-1-(1H-tetrazol-5-yl)ethyl)pentanoic acid] | 5.3 | 72 | 40 | 37 | 12.5 | 2.3
CC(C)C[C@H](C(=O)O)[C@H](Cc1ccc(C2CCNCC2)nc1)c1nnn[nH]1 [Example 103, (S)-4-methyl-2-((S)-2-(6-(piperidin-4-yl)pyridin-3-yl)-1-(1H-tetrazol-5-yl)ethyl)pentanoic acid] | 3.4 | 960 | 150 | 18.8 | 6.2 | 18.8
CC(C)[C@H](C(=O)O)[C@H](Cc1ccc(C2CCNCC2)nc1)c1nnn[nH]1 [Example 104, (2S,3S)-2-isopropyl-4-(6-(piperidin-4-yl)pyridin-3-yl)-3-(1H-tetrazol-5-yl)butanoic acid] | 14 | 7000 | 180 | 18.8 | 3.1 | 37
